≈ marks a conversion by molar mass, not a printed value.

In assay [1] the test system is S. epidermidis ATCC 35984 biofilm. Briefly: Biofilm removal activity (CLSM, LIVE/DEAD). It counts as cell-based. The following applies: 72-h-old biofilm; 18 h; vancomycin 0.5%; p < 0.01 vs FK-16. Here is the method: (§1) Rough titanium disks (Adler Ortho, Cormano, Milan, Italy) were autoclaved at 121°C for 15 min and placed into sterile 6-well plates. S. epidermidis ATCC 35984, S. epidermidis GOI1153754-03-14, S. aureus ATCC 49,230 and S. aureus Sau89 were grown overnight in BHI broth at 37 °C. The culture was diluted up to 1.5 × 10^6 in BHI broth and 6 mL of each culture was inoculated in the disk containing wells. Two disks were inoculated with sterile BHI as sterility control. All the plates were incubated at 37 °C for 72 h. After incubation, the disks were gently washed with sterile saline to remove unattached cells. Each disk was treated with either vancomycin at 0.5% (Pharmatex, Milan, Italy), GF-17 (18.75 µg/mL) or FK-16 (75 µg/mL) for 18 h. Two disks for each bacterial inoculum were untreated as control. Subsequently, disks were gently washed with sterile saline solution and stained with Filmtracer^TM LIVE/DEAD^TM Biofilm Viability Kit (Thermo Fisher Diagnostics, Monza, Italy), according to the manufacturer’s instructions, washed again with sterile saline and observed with an upright TCS SP8 (Leica Microsystems CMS GmbH, Mannheim, Germany) using a 20X dry objective (HC PL FLUOTAR 20X/0.50 DRY). The images were acquired with Las X (Leica Microsystems CMS GmbH, Mannheim, Germany) and analyzed with Fiji software (Fiji, ImageJ version 1.53t, Wayne Rasband National Institutes of Health). For each channel, the biofilm area was measured after setting the threshold at 14 for the red channel and 20 for the green channel. The biofilm data were expressed as the percentage of red signal (dead cells) relative to the green channel (live cells). Finally, the data were normalized against the control, which was set to 1.

The subject of assay [2] is S. epidermidis GOI1153754-03-14 biofilm. The experiment in a line: Biofilm removal activity (CLSM, LIVE/DEAD). It counts as cell-based. The following applies: titanium disks; 18 h treatment; FK-16 75 µg/mL, GF-17 18.75 µg/mL, vancomycin 0.5%. Here is the method: as §1
For assay [3], the system named is S. aureus ATCC 49230 biofilm. The experiment in a line: Biofilm removal activity (CLSM, LIVE/DEAD). The format is cell-based. The conditions noted are these: 72-h-old biofilm; 18 h; vancomycin 0.5% vs FK-16 75 µg/mL; p < 0.01. As for the experimental part: as §1
For another assay, the system named is S. aureus Sau89 biofilm. The experiment in a line: Biofilm removal activity (CLSM, LIVE/DEAD). The following applies: 72-h-old biofilm; 18 h; vancomycin 0.5% vs FK-16 75 µg/mL; p < 0.05. The format is cell-based. Here is the method:
as §1

Assay [4] concerns S. epidermidis GOI1153754-03-14 (CI). Briefly: microbe, parasite or virus in culture. The gist of the method: (§2)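 MIC and MBC were determined following ISO20776-1 and CLSI guidelines, with the highest final AMP concentration at 300 µg/mL. Strains were revived in BHI broth at 37 °C for 18 h. MBC was the lowest concentration showing no growth when MIC-plate wells were plated on TSA for 24 h at 37 °C.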

Another assay relates to S. aureus ATCC 25923. Briefly: microbe, parasite or virus in culture. The essentials:
as §2

The subject of another assay is P. aeruginosa ATCC 27853. Briefly: microbe, parasite or virus in culture. The gist of the method: as §2
The next assay has as its system S. aureus ATCC 43300. Briefly: microbe, parasite or virus in culture. The essentials:
as §2

In a further assay the test system is E. coli ATCC 25922. Briefly: microbe, parasite or virus in culture. The gist of the method:
as §2

On to `CN[C@H](CC(C)C)C(=O)N[C@H]1C(=O)N[C@@H](CC(N)=O)C(=O)N[C@H]2C(=O)N[C@H]3C(=O)N[C@H](C(=O)N[C@H](C(=O)O)c4cc(O)cc(O)c4-c4cc3ccc4O)[C@H](O)c3ccc(c(Cl)c3)Oc3cc2cc(c3O[C@@H]2O[C@H](CO)[C@@H](O)[C@H](O)[C@H]2O[C@H]2C[C@](C)(N)[C@H](O)[C@H](C)O2)Oc2ccc(cc2Cl)[C@H]1O` [Van, vancomycin], for which the “Dead bacteria in biofilm (quantitative analysis of fluorescent signals, relative mortality)” value in [1] is given as “higher than the uninoculated control”; in assay [3] it was “more dead cells compared to FK-16 treatment”; in the assay on S. aureus Sau89 biofilm, “more dead cells compared to FK-16 treatment”. Further, the “CLSM observation of treated 72-h-old biofilm (live green / dead red)” value in [2] was “less disruptive effect”. Besides, the “Susceptibility category by MIC (EUCAST clinical breakpoints tables, v. 14)” value in assay [4] (S. epidermidis GOI1153754-03-14) is “S”; in the assay on S. aureus ATCC 25923 (S. aureus 25923), “S”; in the assay on P. aeruginosa ATCC 27853 (P. aeruginosa 27853) it was “R”; in the assay on E. coli ATCC 25922 (E. coli 25922), “R”. Also, the MBC in assay [4] (Staphylococcus epidermidis, read-out: Minimum Bactericidal Concentration (MBC)) is 2.5 mg/L (≈ 1.73 µM); with S. aureus ATCC 25923 (Staphylococcus aureus, ATCC25923, 24 h, read-out: Minimum Bactericidal Concentration (MBC)), 0.6 mg/L (≈ 0.414 µM); in the assay on P. aeruginosa ATCC 27853 (Pseudomonas aeruginosa, ATCC27853, 24 h, read-out: Minimum Bactericidal Concentration (MBC)), more than 40 mg/L; with S. aureus ATCC 43300 (Staphylococcus aureus, ATCC43300, 24 h, read-out: Minimum Bactericidal Concentration (MBC)), 0.6 mg/L (≈ 0.414 µM); with E. coli ATCC 25922 (Escherichia coli, ATCC25922, 24 h, read-out: Minimum Bactericidal Concentration (MBC)), more than 40 mg/L. Further, the MIC in assay [4] (Staphylococcus epidermidis, read-out: Minimum Inhibitory Concentration (MIC)) was 1.25 mg/L (≈ 0.863 µM); with S. aureus ATCC 25923 (Staphylococcus aureus, ATCC25923, read-out: Minimum Inhibitory Concentration (MIC)) it was 0.6 mg/L (≈ 0.414 µM); in the assay with P. aeruginosa ATCC 27853 (Pseudomonas aeruginosa, ATCC27853, read-out: Minimum Inhibitory Concentration (MIC)), more than 40 mg/L; in the assay with S. aureus ATCC 43300 (Staphylococcus aureus, ATCC43300, read-out: Minimum Inhibitory Concentration (MIC)), 0.6 mg/L (≈ 0.414 µM); in the assay on E. coli ATCC 25922 (Escherichia coli, ATCC25922, read-out: Minimum Inhibitory Concentration (MIC)), more than 40 mg/L. For the same compound, the “Susceptibility category by MIC (EUCAST clinical breakpoints tables, version 14)” value in the assay with S. aureus ATCC 43300 (S. aureus 43,300 as printed in text) is recorded as “S”.

(Values after article PMC11350787, “Antimicrobial Properties and Cytotoxicity of LL-37-Derived Synthetic Peptides to Treat Orthopedic Infections” (Antibiotics, 2024).)
